Experimental data: patent publication US20240277697A1, “METHODS OF TREATING OR PREVENTING CONDITIONS ASSOCIATED WITH OPIATE WITHDRAWAL OR OPIATE RELAPSE” (Proniras Corporation, priority 2021, published 2024)
Several values for one entry are separate records, joined by “and”; a condition that tells them apart may be missing. Equal entries are not always repeated.

How the values were obtained:
Assay type in all cases: in vivo
[1] = test system: oxycodone withdrawal in mice; experiment: Oxycodone-precipitated (naloxone) withdrawal in mice; details: mice chronically administered oxycodone
Protocol: (§1) Statistical analyses. All statistical analyses were performed using Prism 7 (GraphPad Software, La Jolla, CA, USA). Data were analyzed with analysis of variance (ANOVA) followed by the Tukey test for multiple comparisons when appropriate. To determine whether treatment with tezampanel affected oxycodone withdrawal, results with its dosage groups (i.e., chronic oxycodone+tezampanel) were compared to the chronic oxycodone+vehicle treatment group. To determine if tezampanel exerted effects by itself in non-dependent mice, results with the chronic saline+10 mg/kg tezampanel group were compared to the chronic saline+vehicle group. Student's T tests were used for analyzing locomotor activity results. Statistical significance was inferred for all tests when p<0.05.
FIGS. 3A-3D show total withdrawal signs, paw tremors, jumps, and percent body weight loss, respectively. ANOVA results indicated statistically significant total number of signs [F(5,42)=33.78; p<0.0001] (FIG. 3A), paw tremors [F(5,42)=10.85; p<0.0001] (FIG. 3B), jumps [F (5, 42)=22.77; p<0.0001] (FIG. 3C) and loss of body weight [F (5, 42)=4.694; p=0.0017] (FIG. 3D).

C57BL/6J mice = experiment: Mouse locomotor activity (photocell activity cages)
Protocol: Male experimentally naive C57BL/6J mice were placed into individual Omnitech photocell activity cages (28×16.5 cm) 30 min after intraperitoneal (i.p.) administration of either vehicle (n=6) or tezampanel at 10 mg/kg (n=7). Interruptions of the photocell beams (two banks of eight cells each) were then recorded for the next 30 min. Data were expressed as number of photocell interruptions.
as §1

Long-Evans hooded rats = experiment: Oxycodone prime-induced reinstatement of extinguished oxycodone-reinforced lever pressing in rats; details: for mean (S.E.M.) active lever presses during reinstatement test session: 0.1 mg/kg s.c. oxycodone prime, vehicle 35.42
Protocol: Tezampanel was tested for its ability to reduce prime-induced reinstatement of extinguished, oxycodone-reinforced lever pressing in rats. Tezampanel doses of 0 (vehicle), 3, and 10 mg/kg were solubilized in a sterile water vehicle and administered i.p. 30 min prior to testing.
Adult male Long-Evans hooded rats (Envigo, Indianapolis, IN) weighing 275-300 g upon delivery were used. When not in testing, rats were individually housed in standard plastic rodent cages in a temperature-controlled (22° C.), AAALAC-accredited facility in which they had ad libitum access to water. The rats were allowed ad libitum rat chow for at least one week prior to the commencement of training, after which they were maintained at 320 g by controlled feedings. The rats were maintained on a 12-h/12-h reversed light-dark cycle (0600-1800 lights off) for the duration of the experiment, and they were trained and tested during the dark segment of this cycle.
Oxycodone self-administration training sessions were conducted five days per week (M-F) for 3 h daily. […] For the duration of the infusion, the tone sounded, and the stimulus lights above both levers flashed at 3 Hz.
Self-administration training continued until these criteria had been met: 1) at least 12 self-administration sessions had occurred; 2) at least 15 oxycodone infusions had occurred during each of the last four sessions; 3) at least 125 lifetime oxycodone infusions had been obtained; 4) at least 50 active lever responses on the last three days of self-administration had been emitted; and 5) there were no increasing or decreasing trends in active lever responses during the last three sessions of self-administration, after which extinction training began. Subsequently, twelve 3-h daily (Mon-Sun) extinction sessions were conducted. During extinction sessions, the house light was illuminated, and the levers were extended, but infusions were not administered nor did any other scheduled stimulus change occur (i.e., neither Sonalert® activations nor stimulus light illuminations occurred). Rats were considered eligible for reinstatement testing provided that the mean number of active-lever presses during the last 3 sessions of extinction was lower than the mean number of active-lever presses during the first 3 sessions of extinction.
A six-day incubation period during which rats remained in their home cages followed extinction training. Oxycodone prime reinstatement testing immediately followed this incubation period (i.e., on the seventh day following the 12th day of extinction training). Conditions during prime reinstatement testing were identical to those during extinction except that either 3 or 10 mg/kg Tezampanel or its vehicle was administered 30 min prior to the reinstatement test session. […]

[2] = 10 mg/kg intraperitoneal, naloxone on test day, vs oxycodone+vehicle

## O=C(O)[C@@H]1C[C@H]2C[C@@H](CCc3nn[nH]n3)CC[C@H]2CN1 [Tezampanel, (3S,4aR,6R,8aR)-6-[2-(1H-tetrazol-5-yl)ethyl]decahydroisoquinoline-3-carboxylic acid]
[1]; [2]
  jumps: attenuated
  paw tremors: attenuated
  total number of withdrawal signs: attenuated
[1]; at the doses tested
  withdrawal-induced body weight loss: failed to attenuate
C57BL/6J mice; 10 mg/kg dose, mice
  observational comments on behaviour: slowed, unsteady locomotion and low activity rates
C57BL/6J mice; 10 mg/kg intraperitoneal, 30 min before, photocell interruptions over 30 min, n=7
  No. of Interruptions (±S.E.M.): 663.7 ± 87.0
C57BL/6J mice; 10 mg/kg intraperitoneal, naive mice, p<0.0001
  locomotor activity compared to vehicle-treated group: significantly reduced
Long-Evans hooded rats; 3 mg/kg i.p. 30 min prior
  mean (S.E.M.) active lever presses during reinstatement test session: 15.55 (+3.022) and 15.55 (±3.022)
Long-Evans hooded rats; 10 mg/kg i.p. 30 min prior
  mean (S.E.M.) active lever presses during reinstatement test session: 13.00 (+2.537) and 13.00 (±2.537)
Long-Evans hooded rats; 3 and 10 mg/kg i.p.
  reinstated response levels relative to vehicle-control: significantly decreased
  reinstatement relative to last extinction session: prevented oxycodone prime injections from eliciting effective reinstatement
